# Reference: patent US20240294525A1, “COMPOUNDS AS GLP-1 RECEPTOR AGONISTS AND USES THEREOF” (CGENETECH (SUZHOU, CHINA) CO., LTD., priority 2021, published 2024)
# Assays:
# [1] = target: GLP-1R (Homo sapiens, UniProt P43220); assay: GLP-1R cAMP experiment (HTRF cAMP agonist detection); format: cell-based; settings: GLP-1R-HEK293 cells
# Protocol: The initial concentration was 500 nM, the compounds were diluted according to a 4-fold gradient in a total of 10 concentrations, and the diluent was dimethyl sulfoxide.
# • 1) 100 nL of each compound was transferred to a OptiPlate 384-well plate by using an Echo liquid transfer system; and • 2) the 384-well plate was centrifuged at 1000 rpm for 5 s.
# • 1) According to a conventional cell thawing method, a GLP-1R-HEK293 cell line was rapidly thawed in a 37° C. water bath; • 2) the cell suspension was transferred to a 15 mL centrifuge tube containing 10 mL of 1×HBSS solution; • 3) at room temperature, the tube was centrifuged at 1000 rpm for 5 min, to collect cells; 4) a supernatant was discarded carefully, and attention was paid to avoid sucking away the cells; • 5) the centrifuge tube was flicked gently, so that the cells were loosened, and 10 mL of 1×HBSS solution was added to resuspend the cells. The cells were blown and beaten up and down by using a sterile pipette, until the cells were blown and beaten to a single-cell state; • 6) the cells were counted by using a Vi-cell counter, to determine the cell concentration and determine the cell activity; • 7) GLP-1R-HEK293 cells were resuspended in a cAMP detection buffer solution (from the above cAMP detection kit), and the concentration was 2.0×10^5/mL; and 8) 10 μL of the GLP-1R-HEK293 cells was transferred into the OptiPlate 384-well plate. 2.4 HTRF cAMP Agonist Detection • 1) The 384-well plate was incubated at room temperature for 20 min, then a cAMP detection reagent (from the above cAMP detection kit) was added; • 2) an electric multi-channel pipette was used to add 10 μL of the cAMP detection reagent to each well; • 3) the 384-well plate was covered by using a TopSeal-A film, and incubated at room temperature for 60 min; and • 4) the TopSeal-A film was removed, and a signal on an Envision instrument was read.
# [2] = Oral pharmacokinetics in mice; format: in vivo, C57 mice; settings: 10 mg/kg
# Protocol: Healthy male C57 mice (9 mice per compound, n=3), purchased from Shanghai Jihui Laboratory Animal Care Co., LTD, with an age of 6-8 weeks.
# The mice were fasted overnight before oral administration, and drunk freely, and feeding was resumed after 4 h of the administration. According to the weight of the mice weighed before the administration, the administration dose was calculated. It was intragastrically administered, and the administration dose was 10 mg/kg. At 0.083 h, 0.25 h, 0.5 h, 1 h, 2 h, 4 h, 8 h, and 24 h after the administration to test animals, about 110 μL of whole blood were respectively collected from submandibular veins of the mice by a semi-continuous method, and placed in a test tube containing K2EDTA. The tube was placed on ice, and centrifuged within 30 min (2000 g, 5 min, 4° C.), plasma was collected, transferred to an appropriately labeled test tube, and frozen at −80° C. in a refrigerator.
# A chromatographic column was Waters ACQUITY UPLC BEH C18 (2.1×50 mm, and 1.7 μm); mobile phase A: H2O-0.025% FA-1 mM NH4OAC, mobile phase B: ACN-0.025% FA-1 mM NH4OAC, flow rate: 0.60 mL/min, gradient elution program: start, 2% B, 0.2 min; 60% B, 0.7 min; 90% B, 1.50 min; 90% B, 2.0 min; 2% B, 2.01 min; 2.6 min, and stop; column temperature: 50° C.; and injection volume: 1 μL.
# Mass spectrometry method: LC-MS/MS-49 (Triple Quad 6500+)(SCIEX, USA), the ion source was an ESI source, the detection mode was positive ion detection, and the scanning mode was a multi-reaction monitoring (MRM) mode, m/z: 446.20/321.10 Da (Glipizide, internal standard).
# 10 μL of a plasma sample was taken and 200 μL of an internal standard working solution (Glipizide, 50 ng/mL) was added, vortex was performed for 1 min, then the mixture was centrifuged at 5800 rpm for 10 min. 70 μL of a supernatant was transferred to a 96-well plate, and 1 μL of the supernatant was taken and injected into LC-MS/MS for analysis.
# Pharmacokinetic (PK) parameters were calculated by using Phoenix WinNonlin 7.0; and the oral pharmacokinetic parameters of the mice, including AUC, Cmax, Tmax, T1/2 and the like, were estimated by using a non-compartmental model. […] PGP-46 T2
# [3] = tested on: hGLP-1R transgenic mouse B-hGLP-1R; assay: Mouse intraperitoneal glucose tolerance test (IPGTT); format: in vivo; settings: hGLP-1R mice, 10 mg/kg oral gavage
# Description: Specific steps were as follows: • 1) After the arrival of experimental animals (hGLP-1R transgenic mouse B-hGLP-1R, SPF-grade mouse, male, 6-8 weeks, and purchased from Baiosaitu Jiangsu Gene Biotechnology Co., Ltd.), all experimental animals were divided into one animal per cage and fed and adapted for 7 days before the start of the experiment (during which the health status of the animals was observed). At least 3 days before the start of IPGTT, the animals were weighed and solvent (0.5% methylcellulose solution) intragastric administration and intraperitoneal saline injection were performed. • 2) On the day before the experiment, the experimental animals were fasted overnight (14 h, 19:00-9:00), and at 9:00 am, the experimental animals were weighed and blood was collected from tail tips to measure the blood glucose.
# [4] = tested on: patients with Type-2 diabetes mellitus; settings: first-phase clinical; cited from earlier work
# GLP-1R, sequence (P43220 24-463): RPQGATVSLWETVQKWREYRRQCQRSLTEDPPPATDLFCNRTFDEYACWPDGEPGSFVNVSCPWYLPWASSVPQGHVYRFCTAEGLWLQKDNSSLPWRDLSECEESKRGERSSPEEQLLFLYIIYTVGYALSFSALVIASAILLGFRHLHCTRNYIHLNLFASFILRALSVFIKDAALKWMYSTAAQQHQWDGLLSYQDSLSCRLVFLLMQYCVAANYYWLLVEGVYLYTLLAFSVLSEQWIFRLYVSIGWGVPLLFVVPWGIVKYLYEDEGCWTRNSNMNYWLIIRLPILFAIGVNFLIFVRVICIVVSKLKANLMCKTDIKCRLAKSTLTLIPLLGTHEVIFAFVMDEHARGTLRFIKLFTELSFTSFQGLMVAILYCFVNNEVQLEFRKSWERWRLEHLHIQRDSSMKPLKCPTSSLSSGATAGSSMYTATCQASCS
SMILES,EC50 [1] [pM],"AUC(0-inf) ([2]; male, C57, mouse, in vivo, po) [ng·h/mL]","AUC(0-t) ([2]; male, C57, mouse, in vivo, po) [ng·h/mL]","Cmax ([2]; male, C57, mouse, in vivo, po) [ng/mL]","MRT inf ([2]; male, C57, mouse, in vivo, po) [h]","MRT last ([2]; male, C57, mouse, in vivo, po) [h]","Tmax ([2]; male, C57, mouse, in vivo, po) [h]","half-life ([2]; male, C57, mouse, in vivo, po) [h]",other results
C#Cc1ccc(COc2cccc(C3CCN(Cc4nc5ccc(C(=O)O)cc5n4C[C@@H]4CCO4)CC3)n2)c(F)c1 [Compound 1],820,3560,3310,1700,1.8,1.5,0.5,2.2,–
C#Cc1ccc(COc2cccc(N3CCN(Cc4nc5ccc(C(=O)O)cc5n4C[C@@H]4CCO4)CC3)n2)c(F)c1 [Compound 2],960,7010,6930,3170,3,2.8,0.5,2.6,blood glucose reducing effect ([3]; 2 g/kg glucose i.p.): significant blood glucose reducing effect; overall blood glucose-reducing effect compared with PF-06882961 ([3]; IPGTT): better than PF-06882961
CC#Cc1ccc(COc2cccc(N3CCN(Cc4nc5ccc(C(=O)O)cc5n4C[C@@H]4CCO4)CC3)n2)c(F)c1 [Compound 3],800,–,–,–,–,–,–,–,–
O=C(O)c1ccc2nc(CN3CCN(c4cccc(OCc5ccc(C#CC6CC6)cc5F)n4)CC3)n(C[C@@H]3CCO3)c2c1 [Compound 4],1750,–,–,–,–,–,–,–,–
O=C(O)c1ccc2nc(CN3CCN(c4cccc(OCc5ccc(C#CCO)cc5F)n4)CC3)n(C[C@@H]3CCO3)c2c1 [Compound 5],5200,–,–,–,–,–,–,–,–
C#Cc1ccc(COc2cccc(N3CCN(Cc4nc5ccc(C(=O)O)cc5n4C[C@@H]4CCO4)CC3)n2)cc1 [Compound 7],390,12500,12500,6170,2,2,0.5,3.1,–
C#Cc1ccc(COc2cccc(N3CCN(Cc4nc5ccc(C(=O)O)cc5n4C[C@@H]4CCO4)CC3)n2)c(Cl)c1 [Compound 8],100,10900,10900,4370,2.5,2.5,1,2.3,–
C#Cc1ccc(COc2cccc(N3CCN(Cc4nc5ccc(C(=O)O)nc5n4C[C@@H]4CCO4)CC3)n2)c(F)c1 [Compound 9],150,3920,3880,2620,1.4,1.3,0.5,1.4,–
C#Cc1ccc(COc2nc(N3CCN(Cc4nc5ccc(C(=O)O)cc5n4C[C@@H]4CCO4)CC3)ccc2F)c(F)c1 [Compound 10],100,9800,9780,4350,2.6,2.5,0.5,2.7,–
C#Cc1ccc(COc2cccc(C3CCN(Cc4nc5c(F)cc(C(=O)O)cc5n4C[C@@H]4CCO4)CC3)n2)c(F)c1 [Compound 11],140,2280,2270,2030,1.9,1.8,0.5,3.9,–
C#Cc1ccc(COc2cccc(N3CCN(Cc4nc5c(F)cc(C(=O)O)cc5n4C[C@@H]4CCO4)CC3)n2)c(Cl)c1 [Compound 12],410,–,–,–,–,–,–,–,–
C#Cc1ccc(COc2nc(N3CCN(Cc4nc5ccc(C(=O)O)cc5n4C[C@@H]4CCO4)CC3)ccc2F)cc1 [Compound 15],850,–,–,–,–,–,–,–,–
C#Cc1ccc(COc2nc(N3CCN(Cc4nc5ccc(C(=O)O)nc5n4C[C@@H]4CCO4)CC3)ccc2F)cc1 [Compound 16],1070,–,–,–,–,–,–,–,–
C#Cc1ccc(COc2nc(N3CCN(Cc4nc5ccc(C(=O)O)nc5n4C[C@@H]4CCO4)CC3)ccc2F)c(F)c1 [Compound 17],560,5140,5130,2830,1.9,1.9,0.25,3,–
C#Cc1ccc(COc2nc(N3CCN(Cc4nc5ccc(C(=O)O)nc5n4C[C@@H]4CCO4)CC3)ccc2F)c(Cl)c1 [Compound 18],370,4140,4130,1470,3.1,3.1,0.5,2.6,–
C#Cc1ccc(COc2nc(N3CCN(Cc4nc5ccc(C(=O)O)cc5n4C[C@@H]4CCO4)CC3)ccc2F)c(Cl)c1 [Compound 19],510,10300,10300,3300,2.7,2.7,0.5,2.4,–
C#Cc1ccc(COc2nc(C3CCN(Cc4nc5ccc(C(=O)O)nc5n4C[C@@H]4CCO4)CC3)ccc2F)c(F)c1 [Compound 20],590,–,–,–,–,–,–,–,–
"N#Cc1ccc(COc2cccc(C3CCN(Cc4nc5ccc(C(=O)O)cc5n4C[C@@H]4CCO4)CC3)n2)c(F)c1 [PF-06882961, reference compound]",–,–,–,–,–,–,–,–,"AUC(0-t) ([2]; male C57 mice, intragastric): 3427.0 ng·h/mL; AUC(0-∞) ([2]; male C57 mice, intragastric): 3444.0 ng·h/mL; Cmax ([2]; male C57 mice, intragastric): 4967.0 ng/mL; MRT(0-t) ([2]; male C57 mice, intragastric): 0.8 h; MRT(0-∞) ([2]; male C57 mice, intragastric): 0.8 h; T1/2 ([2]; male C57 mice, intragastric): 1.4 h; Tmax ([2]; male C57 mice, intragastric): 0.25 h; effects on blood glucose and weight [4]: significant effects on reducing blood glucose and weight"
